Where “and” joins values, the source holds several entries; their conditions need not be identical. Identical values can stand only once. Like-named read-outs stand apart in the source and are kept apart here.
How the values were obtained:
in vitro = conditions: female, CD9, mouse, microsomes, three replicates
DCN1-UBE2M interaction [1] = biological target: T1, DCN1-UBE2M interaction (Homo sapiens, UniProt Q96GG9); assay: biochemical; format: binding
HCC95 cells [2] = conditions: cited from earlier work
[3] = Liver microsomal stability; conditions: for t(1/2): mouse microsomes, 0.8 μM, mean ± SD, three replicates
DCN1-UBE2M interaction [4] = biological target: T1, DCN1-UBE2M interaction; conditions: previously reported potency; cited from earlier work
[5] = for adverse reactions or compound-related side effects after IV dosing: 48 h monitoring after single IV dose
in vivo [6] = assay: in vivo; set-up: species or system mice
HCC95 cells [7] = assay: Western blot for cellular neddylation and substrate levels; format: cell-based
[8] = format: in vivo, mice; conditions: 14 days, 200 mg/kg oral QD or BID
HCC95 cells [9] = conditions: cited from earlier work; remark: listed apart in the source
[10] = system: DCN1/2 over remaining human DCN isoforms; conditions: cited from earlier work
in vivo [11] = conditions: mouse, iv, 1.5 mg/kg, t1/2 (IV half-life), IV 0.5, 1.0 and 1.5 mg/kg, plasma
[12] = pH 7.4, CLint’, Table 3, mean ± SD
[13] = pH 7.4, CLint’, Table 2, mean ± SD
[14] = pH 7.4, CLint, Table 1, mean ± SD
[15] = pH 7.4, CLint’, Table 5, mean ± SD
[16] = IC50, rounded values in running text
[17] = female, CD9, mouse, microsomes, pH 7.4

T1 sequence (Q96GG9 whole entry): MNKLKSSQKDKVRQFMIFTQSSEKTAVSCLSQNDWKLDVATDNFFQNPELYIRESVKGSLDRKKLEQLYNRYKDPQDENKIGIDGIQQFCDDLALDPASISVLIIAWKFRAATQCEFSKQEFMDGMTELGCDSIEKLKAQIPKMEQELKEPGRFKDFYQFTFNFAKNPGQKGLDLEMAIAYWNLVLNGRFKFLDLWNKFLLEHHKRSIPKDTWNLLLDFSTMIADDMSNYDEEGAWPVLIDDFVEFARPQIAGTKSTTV

Structure (SMILES): CCCC(C)N1CCC(N(Cc2ccccc2)C(=O)Nc2cc(F)cc(C(F)(F)F)c2)CC1 (stereo not shown) [Compound 36]
- CLint scaled at 0.8 µM (in vitro; [12]): 291 ± 22.4 mL/min/kg

Structure (SMILES): CCCC(C)N1CCC(N(Cc2ccccc2)C(=O)Nc2ccc(F)c(C(F)(F)F)c2)CC1 (stereo not shown) [Compound 35]
- CLint scaled at 0.8 µM (in vitro; [12]): 145 ± 9.51 mL/min/kg

Structure (SMILES): CCCC(C)N1CCC(N(Cc2ccccc2)C(=O)Nc2ccc3ncsc3c2)CC1 (stereo not shown) [Compound 42]
- CLint scaled at 0.8 µM (in vitro; [12]): 240 ± 24 mL/min/kg

Structure (SMILES): CCCC(C)N1CCC(N(Cc2ccccc2)C(=O)Nc2cccc(Cl)c2)CC1 (stereo not shown) [Compound 22]
- CLint scaled at 0.8 μM (in vitro; [13]): ≥ 500 mL/min/kg

Structure (SMILES): CCCC(C)N1CCC(N(Cc2ccccc2)C(=O)Nc2ccc(C)c(F)c2)CC1 (stereo not shown) [Compound 33]
- CLint scaled at 0.8 µM (in vitro; [12]): 381 ± 31.9 mL/min/kg

Structure (SMILES): CCCC(C)N1CCC(N(Cc2ccccc2)C(=O)Nc2ccc(Cl)c([N+](=O)[O-])c2)CC1 (stereo not shown) [Compound 31]
- CLint scaled at 0.8 µM (in vitro; [12]): 151 ± 10.2 mL/min/kg

Structure (SMILES): CCCCN1CCC(N(Cc2ccc3c(c2)OCO3)C(=O)Nc2cccc(C(F)(F)F)c2)CC1 [Compound 8]
- CLint scaled at 0.8 µM (in vitro; [14]): 220 ± 12.8 mL/min/kg

Structure (SMILES): CCCC(C)N1CCC(N(Cc2ccccc2)C(=O)Nc2cccc(F)c2)CC1 (stereo not shown) [Compound 21]
- CLint scaled at 0.8 μM (in vitro; [13]): ≥ 500 mL/min/kg

Structure (SMILES): CCCN1CCC(N(Cc2ccccc2)C(=O)Nc2cccc(C(F)(F)F)c2)CC1 [Compound 4]
- CLint scaled at 0.8 µM (in vitro; [14]): 318 ± 29.6 mL/min/kg

Structure (SMILES): CCCN1CCC(N(Cc2ccco2)C(=O)Nc2cccc(C(F)(F)F)c2)CC1 [Compound 3]
- CLint scaled at 0.8 µM (in vitro; [14]): 394 ± 55.2 mL/min/kg

Structure (SMILES): CCCCN1CCC(N(Cc2ccccc2)C(=O)Nc2cccc(C(F)(F)F)c2F)CC1 [Compound 69]
- CLint scaled at 0.8 μM (in vitro; [15]): ≥ 500 mL/min/kg

Structure (SMILES): CCCC(C)N1CCC(N(Cc2ccccc2)C(=O)Nc2ccc(C(C)C)cc2)CC1 (stereo not shown) [Compound 29]
- CLint scaled at 0.8 µM (in vitro; [13]): 323 ± 4.46 mL/min/kg

Structure (SMILES): CCCC(C)N1CCC(N(Cc2ccccc2)C(=O)Nc2ccc(Cl)cc2)CC1 (stereo not shown) [Compound 25]
- IC50 (DCN1-UBE2M interaction [1]; IC50): 100 nM
- CLint scaled at 0.8 µM (in vitro; [13]): 156 ± 10.7 mL/min/kg

Structure (SMILES): CCCN1CCC(N(Cc2cc(F)cc(C(F)(F)F)c2)C(=O)Nc2cccc(C(F)(F)F)c2)CC1 [Compound 10]
- CLint scaled at 0.8 µM (in vitro; [14]): 199 ± 9.99 mL/min/kg

Structure (SMILES): CCCC(C)N1CCC(N(Cc2ccccc2)C(=O)Nc2cccc(C(F)(F)F)c2)CC1 (stereo not shown) [Compound 7, 1-benzyl-1-(1-(pentan-2-yl)piperidin-4-yl)-3-(3-(trifluoromethyl)phenyl)urea]
- steady-state levels of cullin neddylation (HCC95 cells [2]; HCC95 cells): suppresses steady-state levels of cullin neddylation
- fold more potent than initial hit (compound 2) (DCN1-UBE2M interaction [1]): 100 fold
- t(1/2) ([3]; Table 1): 0.327 ± 0.010 h
- IC50 (DCN1-UBE2M interaction [4]): 60 nM
- CLint scaled at 0.8 μM (in vitro; [14]): 165 ± 25.9 mL/min/kg
- adverse reactions or compound-related side effects after IV dosing [5]: We did not observe any adverse reactions or compound-related side effects
- t1/2 (IV half-life) ([5]; IV 0.5, 1.0 and 1.5 mg/kg, plasma): 8.4 to 12 min

Structure (SMILES): CCCC(C)N1CCC(N(Cc2ccccc2)C(=O)Nc2ccc(C)cc2)CC1 (stereo not shown) [Compound 28]
- CLint scaled at 0.8 µM (in vitro; [13]): 356 ± 31.9 mL/min/kg

Structure (SMILES): CCCC(C)N1CCC(N(Cc2ccccc2)C(=O)Nc2ccc(C(F)(F)F)nc2C)CC1 (stereo not shown) [Compound 41]
- CLint scaled at 0.8 μM (in vitro; [12]): < 13.5 mL/min/kg

Structure (SMILES): CCCCN1CCC(N(Cc2ccccc2)C(=O)Nc2ccc(F)c(Cl)c2)CC1 [Compound 72]
- CLint scaled at 0.8 µM (in vitro; [15]): 38.7 ± 1.63 mL/min/kg

Structure (SMILES): CCCCN1CCC(N(Cc2ccccc2)C(=O)Nc2cccc(C#N)c2)CC1 [Compound 66]
- CLint scaled at 0.8 µM (in vitro; [15]): 349 ± 22.5 mL/min/kg

Structure (SMILES): CCCC(C)N1CCC(N(Cc2ccccc2)C(=O)Nc2ccc(F)c(F)c2)CC1 (stereo not shown) [Compound 32]
- CLint scaled at 0.8 µM (in vitro; [12]): 302 ± 15.2 mL/min/kg

Structure (SMILES): CCCCN1CCC(N(Cc2ccccc2)C(=O)Nc2ccc(F)c(C(F)(F)F)c2)CC1 [Compound 70]
- CLint scaled at 0.8 µM (in vitro; [15]): 27.9 ± 2.71 mL/min/kg

Structure (SMILES): CC(C)(C)N1CCC(N(Cc2ccc3c(c2)OCO3)C(=O)Nc2cccc(C(F)(F)F)c2)CC1 [Compound 9]
- CLint scaled at 0.8 µM (in vitro; [14]): 434 ± 21.1 mL/min/kg

Structure (SMILES): CCCC(C)N1CCC(N(Cc2ccccc2)C(=O)Nc2ccc(C(F)(F)F)cc2)CC1 (stereo not shown) [Compound 24]
- CLint scaled at 0.8 µM (in vitro; [13]): 125 ± 3.17 mL/min/kg

Structure (SMILES): CCCC(C)N1CCC(N(Cc2ccccc2)C(=O)Nc2cc(C(F)(F)F)ccc2F)CC1 (stereo not shown) [Compound 38]
- CLint scaled at 0.8 µM (in vitro; [12]): 66.9 ± 5.15 mL/min/kg

Structure (SMILES): CCCC(C)N1CCC(N(Cc2ccccc2)C(=O)Nc2cccc(C(C)C)c2)CC1 (stereo not shown) [Compound 23]
- CLint scaled at 0.8 µM (in vitro; [13]): 256 ± 22.4 mL/min/kg

Structure (SMILES): CCCN1CCC(N(Cc2ccc3c(c2)OCO3)C(=O)Nc2cccc(C(F)(F)F)c2)CC1 [Compound 1]
- CLint scaled at 0.8 μM (in vitro; [14]): > 500 mL/min/kg

Structure (SMILES): CCCCN1CCC(N(Cc2ccccc2)C(=O)Nc2cccc(C)c2)CC1 [Compound 64]
- CLint scaled at 0.8 µM (in vitro; [15]): 305 ± 4.02 mL/min/kg

Structure (SMILES): CCCCN1CCC(N(Cc2ccccc2)C(=O)Nc2ccc(C)c(Cl)c2)CC1 [Compound 71]
- CLint scaled at 0.8 µM (in vitro; [15]): 189 ± 14.5 mL/min/kg

Structure (SMILES): CCCCN1CCC(N(Cc2ccccc2)C(=O)Nc2ccc(Cl)c(Cl)c2)CC1 [Compound 67, 1-benzyl-1-(1-butylpiperidin-4-yl)-3-(3,4-dichlorophenyl)urea]
- steady-state levels of neddylated cullins (selectivity among cullins) (HCC95 cells [2]; HCC95): selectively reduces steady-state levels of neddylated CUL1 and CUL3 while CUL2, CUL4A, and CUL5 are relatively unaffected
- adverse reaction after oral administration (in vivo [6]; 48 h monitoring, any dose tested): did not cause a significant adverse reaction at any dose tested
- half-life (in vivo [6]; mouse, in vivo, po, 200 mg/kg): 3 to 5 h
- t(1/2) ([3]; Table 5): 2.11 ± 0.336 h
- bioavailability predicted from in vitro clearance (Fin vitro) ([3]; calculated by 1 - CL/Qh): 78%
- CLint scaled at 0.8 μM (in vitro; [15]): 25.6 ± 4.08 mL/min/kg
- gross substrate stabilization (HCC95 cells [7]; HCC95): does not elicit gross substrate stabilization
- steady-state levels of neddylated CUL1 and CUL3 (HCC95 cells [7]; HCC95, 48 hours, dosing at T = 0 and T = 24 hr): inhibits steady-state levels of neddylated CUL1 and CUL3 in a dose-dependent manner
- levels of CUL1/CUL3 substrates NRF2 and p27 (HCC95 cells [7]; HCC95, 48 hours, longer exposures): dose-dependent increase
- adverse reactions or compound-related side effects, repeat dosing [8]: no adverse reactions or compound-related side effects were observed
- anchorage-independent growth (HCC95 cells [9]): inhibits the anchorage-independent growth of HCC95 cells
- selectivity for DCN1/2 over other DCN isoforms [10]: high level of selectivity for inhibition of DCN1/2 over the highly homologous remaining human DCN isoforms
- half-life (in vivo [11]): 3 to 4 h
- adverse reactions or compound-related side effects after IV dosing [5]: failed to induce any measureable adverse reactions
- fold lower clearance in mouse microsomes than compound 7: six-fold

Structure (SMILES): O=C(Nc1cccc(C(F)(F)F)c1)N(Cc1ccccc1)C1CCN(CC2CC2)CC1 [Compound 5]
- CLint scaled at 0.8 μM (in vitro; [14]): > 500 mL/min/kg

Structure (SMILES): O=C(Nc1cccc(C(F)(F)F)c1)NC1CCN(Cc2ccccc2)CC1 [Compound 2]
- CLint scaled at 0.8 µM (in vitro; [14]): 91.4 ± 8.12 mL/min/kg

Structure (SMILES): CCCCN1CCC(N(Cc2ccccc2)C(=O)Nc2cccc(Cl)c2)CC1 [Compound 63]
- CLint scaled at 0.8 μM (in vitro; [15]): ≥ 500 mL/min/kg

Structure (SMILES): CCCC(C)N1CCC(N(Cc2ccccc2)C(=O)Nc2cc(Cl)ccc2F)CC1 (stereo not shown) [Compound 39]
- CLint scaled at 0.8 µM (in vitro; [12]): 230 ± 13.1 mL/min/kg

Structure (SMILES): CCCCN1CCC(N(Cc2ccccc2)C(=O)Nc2cc(F)cc(C(F)(F)F)c2)CC1 [Compound 47]
- fold reduction in biochemical potency versus compound 7 (DCN1-UBE2M interaction [1]): five-fold
- CLint scaled at 0.8 µM (in vitro; [15]): 22.3 ± 4.88 mL/min/kg

Structure (SMILES): CCCCN1CCC(N(Cc2ccccc2)C(=O)Nc2cccc(C(F)(F)F)c2)CC1 [Compound 6]
- CLint scaled at 0.8 µM (in vitro; [14]): 361 ± 45.1 mL/min/kg

Structure (SMILES): CCCC(C)N1CCC(N(Cc2ccccc2)C(=O)Nc2ccc(Br)cc2)CC1 (stereo not shown) [Compound 26]
- IC50 (DCN1-UBE2M interaction [1]; [16]): ~60 nM
- CLint scaled at 0.8 µM (in vitro; [13]): 148 ± 7.63 mL/min/kg

Structure (SMILES): CCCC(C)N1CCC(N(Cc2ccccc2)C(=O)Nc2ccc3c(c2)CCC3)CC1 (stereo not shown) [Compound 43]
- CLint scaled at 0.8 μM (in vitro; [12]): ≥ 500 mL/min/kg

Structure (SMILES): CCCC(C)N1CCC(N(Cc2ccccc2)C(=O)Nc2ccc(I)cc2)CC1 (stereo not shown) [Compound 27]
- IC50 (DCN1-UBE2M interaction [1]; [16]): ~60 nM and 50 nM
- CLint scaled at 0.8 µM (in vitro; [13]): 115 ± 2.78 mL/min/kg

Structure (SMILES): CCCC(C)N1CCC(N(Cc2ccccc2)C(=O)Nc2ccc(C#N)c(C(F)(F)F)c2)CC1 (stereo not shown) [Compound 34]
- CLint scaled at 0.8 µM [3, 17]: 61.3 ± 3.49 mL/min/kg
- CLint scaled at 0.8 μM [3, 17]: 60 mL/min/kg

— PMC5914176 (Journal of medicinal chemistry, 2018)
